# Test system: differentiating wild-type Th2 cells
# Test: Th2 cell differentiation and commitment in Th2-polarizing culture with non-specific SETDB1 inhibitors; cytokine production by intracellular staining and flow cytometry
# Conditions: naïve CD4 T cells, 6 days in Th2-polarizing conditions; 100 nM Mithramycine A for first 4 hours, 1 nM DZNep for first 24 hours; no pro-Th1 signal; vs DMSO; PMA/Ionomycine restimulation
# Method: At the end of the culture, cytokine production was assessed by flow cytometry following T cell restimulation with PMA/Ionomycine in the presence of Monensin and intracellular staining.
# Spleen and lymph nodes (mesenteric, inguinal, axillary, brachial and cervical) were collected and digested with Liberase TM and DNAse I (Sigma). Single-cell suspensions were then pooled and depleted of erythrocytes by osmotic shock (Red Blood Cell Lysis buffer, Sigma). […] Naïve CD4 T cells, defined as CD4+CD25-CD62LhighCD44low, were labeled with fluorochrome-conjugated monoclonal antibodies specific for CD4 (GK1.5, BD Biosciences), CD25 (PC61, BD Biosciences), CD62L (MEL14, Thermo Fischer Scientific) and CD44 (IM7, BD Biosciences), and purified from the enriched fraction of CD4 T cells by fluorescence-activated cell sorting (FACS Aria, BD Biosciences). […]
# For intracellular cytokine staining, cells were first stimulated at 37° C. with 20 ng/mL phorbol 12-myristate 13-acetate (Millipore) and 1 μg/mL ionomycin (Millipore) for 5 hours in the presence of GolgiStop™ (BD Biosciences). […] Flow cytometry was performed by using a LSRII Fortessa cytometer (BD Biosciences) or MACSQuant analyzer 10 (Myltenyi) and the data were analyzed by using FlowJo software (Tree Star). […]
smiles,measurement,value
"Nc1nccc2c1ncn2[C@@H]1C=C(CO)[C@@H](O)[C@H]1O [DZNEP, 3-Deazaneplanocin A]",IFN-γ production by Th2 cells (frequency of IFNg-producing cells),"start to produce pro-Th1 factor, in particular IFN-γ"

# Reference: patent publication US20220000893A1, “METHOD FOR TREATING T-HELPER TYPE 2 MEDIATED DISEASE” (|NSERM (INSTITUT NATIONAL DE LA SANTÉ ET DE LA RECHERCHE …, priority 2018, published 2022)
